Ends that are not written are not given here. Peptide text beside a SMILES is read from it. * marks the point of attachment. Octanoyl = CCCCCCCC(=O)*
Columns and labels:
Type in all cases: cell-based
C. albicans = assay: MIC microtiter assay, C. albicans; details: Mueller Hinton broth, 16-20 hours at 37° C.
From the text: (§1) Table I, which follows, indicates the Minimal Inhibitory Concentration (MIC) in μg/ml of various peptides, against S. aureus strain ATCC 25923(S), P. aeruginosa strain ATCC 27853(P), and E. coli ATCC strain 25922(E), and C. albicans (CA). […] The peptides ere unsubstituted at the N-terminal, substituted with an acetyl group at the N-terminal as indicated by Ac-; substituted with an octanoyl group at the N-terminal as indicated by Oct-, substituted with sphingosine as indicated by Sph-; substituted with a succinyl group, as indicated by Suc-; substituted with a hexanoyl group, as indicated by Hex-; substituted with a heptanoyl group, as indicated by Hep; substituted with a valeryl group, as indicated by Val-; substituted with, a myristryl group, as indicated by Myr-; or substituted with an ibuprofyl group, as indicated by Ibu-.
The procedure for the antibacterial assay is based upon the guidelines of the National Committee for Clinical Laboratory Standards, Document M7-T2, Volume 8, No. 8, 1988.
Stock solutions of peptides with and without the appropriate substitutions,are prepared at a concentration of 512 μg/ml in sterile deionized distilled water and stored at -70° C. Each peptide is a C-terminal amide.
The stock peptide solution is diluted in serial dilutions (1:2) down the wells of a microtiter plate so that the final concentrations of peptides in the wells are 0.25, 0.50, 1, 2, 4, 8, 16, 32, 64, 128, and 256 μg/ml. 1-5×10^5 CFUs/ml of either S. aureus ATCC 25923, E. coli ATCC 25922, P. aeruginosa ATCC 27853, or C. albicans, were added to the wells in full strength Mueller Hinton broth (BBL 11443) from a mid-log culture. The inoculum is standardized spectrophotometrically at 600 nm and is verified by colony counts. The plates are incubated for 16-20 hours at 37° C., and the minimal inhibitory concentration (MIC) for each peptide is determined. Minimal inhibitory concentration is defined as the lowest concentration of peptide which produces a clear well in the microtiter plate. […]

[1] = system: E. coli ATCC strain 25922; assay: Antibacterial MIC microtiter assay (NCCLS M7-T2), E. coli; details: E. coli ATCC 25922; Mueller Hinton broth, 16-20 hours at 37° C.
From the text: as §1
(§2) The procedure for the antibacterial assay is based upon the guidelines of the National Committee for Clinical Laboratory Standards, Document M7-T2, Volume 8, No. 8, 1988. […]
(§3) The stock peptide solution is diluted in serial dilutions (1:2) down the wells of a microtiter plate so that the final concentrations of peptides in the wells are 0.25, 0.50, 1, 2, 4, 8, 16, 32, 64, 128, and 256 μg/ml. […] The plates are incubated for 16-20 hours at 37° C., and the minimal inhibitory concentration (MIC) for each peptide is determined. […]

[2] = system: P. aeruginosa strain ATCC 27853; assay: Antibacterial MIC microtiter assay (NCCLS M7-T2), P. aeruginosa; details: P. aeruginosa ATCC 27853; Mueller Hinton broth, 16-20 hours at 37° C.
From the text: as §1, §2, §3

[3] = system: S. aureus strain ATCC 25923; assay: Antibacterial MIC microtiter assay (NCCLS M7-T2), S. aureus; details: S. aureus ATCC 25923; Mueller Hinton broth, 16-20 hours at 37° C.
From the text: as §1, §2, §3

A. viscosus = assay: Anaerobic antimicrobial susceptibility test (NCCLS M11-T2), A. viscosus; details: BHI broth, 24-48 hours
S. mutans = assay: Anaerobic antimicrobial susceptibility test (NCCLS M11-T2), S. mutans; details: BHI broth, 24-48 hours
P. gingivalis = assay: Anaerobic antimicrobial susceptibility test (NCCLS M11-T2), P. gingivalis; details: 24-48 hours; for MIC P. gingivalis (strain) 9-14K-1: strain 9-14K-1, BHI broth; for MIC P. gingivalis (strain) 381: strain 381, BHI broth; for MIC P. gingivalis (strain) A7A1-28: strain A7A1-28, BHI broth; for MIC P. gingivalis (strain) FAY-19M-1: strain FAY-19M-1, BHI broth; for MIC P. gingivalis (strain) W50: strain W50, BHI broth

Molecule	Minimal Inhibitory Concentration CA (C. albicans)	Minimal Inhibitory Concentration E [1]	Minimal Inhibitory Concentration P [2]	Minimal Inhibitory Concentration S [3]	MIC A. viscos (A. viscosus)	MIC S. mutans (S. mutans)	MIC P. gingivalis (strain) 9-14K-1 (P. gingivalis)	MIC P. gingivalis (strain) 381 (P. gingivalis)	MIC P. gingivalis (strain) A7A1-28 (P. gingivalis)	MIC P. gingivalis (strain) FAY-19M-1 (P. gingivalis)	MIC P. gingivalis (strain) W50 (P. gingivalis)
CCCCCCCC(=O)N[C@@H](CCCCN)C(=O)N[C@@H](Cc1c[nH]c2ccccc12)C(=O)N[C@@H](CCCCN)C(=O)N[C@@H](CC(C)C)C(=O)N[C@@H](Cc1ccccc1)C(=O)N[C@@H](CCCCN)C(=O)N[C@@H](CCCCN)C(=O)N[C@H](C(=O)N[C@@H](CCC(=O)O)C(=O)N[C@@H](CCCCN)C(=O)N[C@H](C(N)=O)C(C)C)[C@@H](C)CC [Oct-(SEQ ID NO: 136)-NH2] (Octanoyl-KWKLFKKIEKV-NH2)	128 µg/mL	–	–	–	–	–	–	–	–	–	–
CCCCCCCC(=O)NCC(=O)N[C@H](C(=O)N[C@@H](CCCCN)C(=O)N[C@@H](CCCCN)C(=O)N[C@@H](Cc1ccccc1)C(=O)N[C@@H](CC(C)C)C(=O)N[C@@H](CCCCN)C(=O)N[C@@H](CCCCN)C(=O)N[C@@H](C)C(=O)NCC(=O)N[C@@H](CCCCN)C(=O)N[C@@H](Cc1ccccc1)C(=O)NCC(=O)N[C@@H](CCCCN)C(=O)N[C@@H](C)C(=O)N[C@@H](Cc1ccccc1)C(N)=O)[C@@H](C)CC [Oct-(SEQ ID NO: 149)-NH2] (Octanoyl-GIKKFLKKAGKFGKAF-NH2)	128 µg/mL	–	–	–	–	–	–	–	–	–	–
(SEQ ID NO: 27)-OH: unsubstituted (Lys Ile Ala Gly Lys Ile Ala)3, C-terminal OH (KIAGKIAKIAGKIAKIAGKIA-OH)	–	8 µg/mL	128 µg/mL	128 µg/mL	–	–	–	–	–	–	–
(SEQ ID NO: 86)-OH: unsubstituted (Lys Ile Ala Lys Lys Ile Ala)3, C-terminal OH (KIAKKIAKIAKKIAKIAKKIA-OH)	256 µg/mL	2 µg/mL	32 µg/mL	128 µg/mL	32 μl/ml	16 μl/ml	16 μl/ml	16 μl/ml	4 μl/ml	8 μl/ml	4 μl/ml
KIAKKIAKIAKKIAKIAKKIA-NH2 [(SEQ ID NO: 86)-NH2]	–	–	–	–	16 μl/ml	4 μl/ml	8 μl/ml	8 μl/ml	2 μl/ml	8,128 μl/ml	4 μl/ml

From patent publication US5654274A, “Biologically active peptides having N-terminal substitutions” (priority 1995, dated 1997)
